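At the GI50, growth is halved. TGI marks complete inhibition of growth.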
Tests used:
Experiment in all cases: NCI-60 cell line screen, 384-well format
[1] = test system: SK-MEL-28 melanoma
[2] = test system: MOLT-4 leukemia
[3] = test system: TK-10 renal
[4] = test system: K-562 leukemia
[5] = test system: 786-0 renal
[6] = test system: OVCAR-4 ovarian
[7] = test system: SF-268 CNS
[8] = test system: SF-539 CNS
[9] = test system: RXF 393 renal
[10] = test system: HOP-92 NSCLC
[11] = test system: BT-549 breast
[12] = test system: HT29 colon
[13] = test system: OVCAR-3 ovarian
[14] = test system: PC-3 prostate
[15] = test system: UACC-257 melanoma
[16] = test system: CCRF-CEM leukemia
[17] = test system: A549 NSCLC
[18] = test system: MALME-3M melanoma
[19] = test system: SW-620 colon
[20] = test system: SK-OV-3 ovarian
[21] = test system: SN12C renal
[22] = test system: MDA-MB-435 melanoma
[23] = test system: U251 glioblastoma
[24] = test system: T-47D breast
[25] = test system: SK-MEL-5 melanoma
[26] = test system: HOP-62 NSCLC
[27] = test system: KM12 colon
[28] = test system: NCI-H522 lung

Compound `COC1CCC(N2C(=O)CNc3ncc(-c4ccc(C(C)(C)O)nc4)nc32)CC1` (stereo unspecified) has a GI50 [1] of 0.234 µM, a TGI [1] greater than 100 µM and a GI50 [2] of 0.233 µM. For the same compound, the TGI [2] was 2.11 µM, the GI50 [3] was 0.504 µM and the TGI [3] was 17.2 µM. The GI50 [4] was 0.517 µM, the TGI [4] was 72 µM and the GI50 [5] was 0.911 µM. For the same compound, the TGI [5] was greater than 100 µM, the GI50 [6] was 0.901 µM and the TGI [6] was 8.95 µM. It also gave a GI50 [7] of 2.18 µM, a TGI [7] of 20 µM and a GI50 [8] of 1.27 µM. It also gave a TGI [8] of 22.3 µM, a GI50 [9] of 0.438 µM and a TGI [9] of 92.4 µM. The GI50 [10] was 0.454 µM, the TGI [10] was greater than 100 µM and the GI50 [11] was 0.474 µM. The TGI [11] was 7.35 µM, the GI50 [12] was 0.697 µM and the TGI [12] was greater than 100 µM. The GI50 [13] was 0.386 µM, the TGI [13] was 22.8 µM and the GI50 [14] was 0.157 µM. For the same compound, the TGI [14] was 14.6 µM, the GI50 [15] was 3.01 µM and the TGI [15] was greater than 100 µM. It also gave a GI50 [16] of 0.261 µM, a TGI [16] of 10.6 µM and a GI50 [17] of 0.358 µM. It also gave a TGI [17] greater than 100 µM, a GI50 [18] of 0.0689 µM and a TGI [18] of 0.587 µM. For the same compound, the GI50 [19] was 2.58 µM, the TGI [19] was greater than 100 µM and the GI50 [20] was 0.28 µM. For the same compound, the TGI [20] was 17.1 µM, the GI50 [21] was 0.275 µM and the TGI [21] was 68.4 µM. The GI50 [22] was 0.515 µM, the TGI [22] was 24.2 µM and the GI50 [23] was 1.9 µM. It also gave a TGI [23] of 41.2 µM, a GI50 [24] of 0.0743 µM and a TGI [24] greater than 100 µM. The GI50 [25] was 0.2 µM, the TGI [25] was 2.62 µM and the GI50 [26] was 0.672 µM. It also gave a TGI [26] greater than 100 µM, a GI50 [27] of 0.474 µM and a TGI [27] of 33.9 µM. For the same compound, the GI50 [28] was 0.2 µM and the TGI [28] was 21.4 µM.
